Experiments:
[1] = system: SORVU* (non-PPOi herbicide tolerant); assay: Post-emergence application in field trials (Examples 2 and 3); assay type: in vivo, Sorghum vulgare
Protocol: (§1) In the examples below, using the method of S. R. Colby (1967) “Calculating synergistic and antagonistic responses of herbicide combinations”, Weeds 15, p. 22ff., the value E, which is expected if the activity of the individual active compounds is only additive, was calculated.
(§2) [formula] • where • X=percent activity using active herbicide A at an application rate a; • Y=percent activity using active saflufenacil at an application rate b; • E=expected activity (in %) by A+B at application rates a+b.
(§3) If the value found experimentally is higher than the value E calculated according to Colby, a synergistic effect is present.
(§4) On field test sites, natural weed infestation or seeded weeds were treated post-emergence of the weeds.
(§5) For the post emergence treatment, the weedy plants were treated as indicated below. The herbicidal compositions were, together with the adjuvant(s) as indicated, suspended or emulsified in water (200 l/ha unless indicated otherwise) as distribution medium and sprayed with commercial flat fan nozzles.
(§6) In the following experiments, the herbicidal activity for the individual herbicidal compositions (solo and mixture applications) was assessed the indicated days after treatment (DAT). The assessments for the damage on undesired weeds caused by the composition was carried out using a scale from 0 to 100%, compared to the untreated control plants. Here, 0 means no damage and 100 means complete destruction of the plants.
as §5, with “I/ha” for “l/ha”

[2] = system: SETVI; assay: as above; assay type: in vivo, Setaria viridis
Protocol: as §1, §2, §3, §4, §5, §6
as §5, with “I/ha” for “l/ha”

[3] = system: BRADC; assay: as above; assay type: in vivo, Brachiaria decumbens; conditions: growth stage 22-23, height 32-38 cm, 21 DAT, 1% Dash ® HC
Protocol: as §1, §2, §3, §4, §5, §6
as §5, with “I/ha” for “l/ha”

[4] = system: CHEAL; assay: Post-emergence application in greenhouse trials; assay type: in vivo, Chenopodium album; conditions: 21 DAT, growth stage 51, saflufenacil as commercial 342 g/l SC formulation
Protocol: as §1, §2, §3
(§7) The culture containers used were plastic pots containing loamy sand with approximately 3.0% of humus as substrate. The seeds of the test plants were sown separately for each species.
For the post-emergence treatment, the test plants were grown to a plant height of from 3 to 15 cm, depending on the plant habit, and only then treated with the active compounds which had been suspended or emulsified in water. To this end, the test plants were either sown directly, and grown in the same containers, or they were first grown separately as seedlings and transplanted into the test containers a few days prior to treatment. […]
The test period extended over 2 to 4 weeks. During this time, the plants were tended and their response to the individual treatments was evaluated. […]

[5] = system: CYPES; assay: Post-emergence application in field trials (Examples 2 and 3); assay type: in vivo, Cyperus esculentus; conditions: 21 DAT, height 15-23 cm, 140 l/ha water, 1% MSO + 2.5% ammoniumsulfate
Protocol: as §1, §2, §3, §4, §5
as §6, with “Here, 0 means no damage and 100 means complete destruction of the plants.” left out

[6] = system: AVEST; assay: as above; assay type: in vivo, Avena stirilis; conditions: 14 DAT, 1% v/ MSO
Protocol: as §1, §2, §3, §4, §5
as §6, with “Here, 0 means no damage and 100 means complete destruction of the plants.” left out

[7] = system: ERISS; assay: as above; assay type: in vivo, Erigeron sp.; conditions: 14 DAT, height 30-50 cm, 0.5% v/v MSO
Protocol: as §1, §2, §3, §4, §5, §6
as §5, with “I/ha” for “l/ha”

[8] = system: ERICA; assay: as above; assay type: in vivo, Erigeron canadensis; conditions: 21 DAT
Protocol: as §1, §2, §3, §4, §5, §6
as §5, with “I/ha” for “l/ha”

[9] = system: ERICA; assay: Post-emergence application in greenhouse trials; assay type: in vivo, Erigeron canadensis; conditions: 21 DAT, growth stage 31, saflufenacil as commercial 342 g/l SC formulation
Protocol: as §1, §2, §3, §7
For the post-emergence treatment, the test plants were grown to a plant height of from 3 to 15 cm, depending on the plant habit, and only then treated with the active compounds which had been suspended or emulsified in water. To this end, the test plants were either sown directly, and grown in the same containers, or they were first grown separately as seedlings and transplanted into the test containers a few days prior to treatment.
Depending on the species, the plants were kept at 10-25° C. and 20-35° C., respectively.
The test period extended over 2 to 4 weeks. During this time, the plants were tended and their response to the individual treatments was evaluated.
Evaluation was carried out using a scale from 0 to 100. 100 means no emergence of the plants, or complete destruction of at least the above-ground parts, and 0 means no damage or normal course of growth. A good herbicidal activity is given at values of at least 70, and very good herbicidal activity is given at values of at least 85.
Unless indicated otherwise, herbicide A and saflufenacil were formulated (50 g/I) and applied with addition of 1% MSO (methylated seed oil) as adjuvant. In the greenhouse trials, the solvent used was water (200 I/ha).

[10] = system: ZEAMX* (non-PPOi herbicide tolerant); assay: Post-emergence application in field trials (Examples 2 and 3); assay type: in vivo, Zea mays; conditions: 21 DAT
Protocol: as §1, §2, §3, §4, §5, §6
as §5, with “I/ha” for “l/ha”

[11] = system: BIDPI; assay: as above; assay type: in vivo, Bidens pilosa; conditions: 21 DAT, growth stage 12-16, height 5-10 cm, 0.5% MSO
Protocol: as §1, §2, §3, §4, §5
as §6, with “Here, 0 means no damage and 100 means complete destruction of the plants.” left out

[12] = system: POAAN; assay: as above; assay type: in vivo, Poa annua
Protocol: as §1, §2, §3, §4, §5, §6
as §5, with “I/ha” for “l/ha”

[13] = system: SETIT; assay: as above; assay type: in vivo, Setaria italica; conditions: height 21-31 cm, 22 DAT, 1% v/v MSO
Protocol: as §1, §2, §3, §4, §5
as §6, with “Here, 0 means no damage and 100 means complete destruction of the plants.” left out

[14] = system: HORVS* (non-PPOi herbicide tolerant); assay: as above; assay type: in vivo, Hordeum vulgare; conditions: 1% v/v MSO
Protocol: as §1, §2, §3, §4, §5, §6
as §5, with “I/ha” for “l/ha”

CCOC(=O)COc1ccccc1Oc1nc(-n2c(=O)cc(C(F)(F)F)n(C)c2=O)c(F)cc1Cl [A-1, ethyl 2-[2-[[3-chloro-5-fluoro-6-[3-methyl-2,6-dioxo-4-(trifluoromethyl)pyrimidin-1-yl]-2-pyridyl]oxy]phenoxy]acetate]
% Herbicidal activity ([1]; A-1 50 g ai/ha, 25 DAT, growth stage 14-15, field, 0.25 l/ha Dash MSO Max ®): 93%
% Herbicidal activity ([1]; SORVU* (non-PPOi herbicide tolerant), height 21-31 cm, A-1 solo 30 g ai/ha, 22 DAT, 1% v/v MSO): 96%
% Herbicidal activity ([2]; A-1 12.5 g ai/ha, 19 DAT, growth stage 13-19, height 2.5-10 cm, field, 1% v/v MSO and 1% w/v ammoniumsulfate): 87%
% Herbicidal activity ([2]; A-1 25 g ai/ha, 19 DAT, growth stage 13-19, height 2.5-10 cm, field, 1% v/v MSO and 1% w/v ammoniumsulfate): 96%
% Herbicidal activity ([2]; SETVI, height 50-61 cm, A-1 solo 25 g ai/ha, 42 DAT, 1% v/v MSO and 2.5% AMSOL ®): 57%
% Herbicidal activity ([3]; A-1 solo 30 g ai/ha): 75%
% Herbicidal activity ([3]; A-1 solo 50 g ai/ha): 88%
% Herbicidal activity ([4]; A-1 3.12 g ai/ha): 65%
% Herbicidal activity ([5]; A-1 12.5 g ai/ha): 47%
% Herbicidal activity ([6]; growth stage 12-22, A-1 solo 12.5 g ai/ha): 95%
% Herbicidal activity ([7]; A-1 25 g ai/ha): 13%
% Herbicidal activity ([7]; A-1 50 g ai/ha): 18%
% Herbicidal activity ([8]; A-1 6.25 g ai/ha, height 12.5-25 cm, field, 140 l/ha water, 1% MSO + 2.5% ammoniumsulfate): 7%
% Herbicidal activity ([8]; A-1 12.5 g ai/ha, height 12.5-25 cm, field, 140 l/ha water, 1% MSO + 2.5% ammoniumsulfate): 17%
% Herbicidal activity ([8]; ERICA, height 5-10 cm, A-1 solo 25 g ai/ha, 1% v/v MSO and 1% AMS (ammonium sulfate)): 60%
% Herbicidal activity ([9]; A-1 1.56 g ai/ha): 10%
% Herbicidal activity ([9]; A-1 3.12 g ai/ha): 10%
% Herbicidal activity ([9]; A-1 6.25 g ai/ha): 30%
% Herbicidal activity ([10]; A-1 12.5 g ai/ha, growth stage 15, 1% v/v MSO and 1% w/v ammoniumsulfate): 40%
% Herbicidal activity ([10]; A-1 25 g ai/ha, growth stage 15, 1% v/v MSO and 1% w/v ammoniumsulfate): 83%
% Herbicidal activity ([10]; A-1 50 g ai/ha, growth stage 18, 0.5% MSO): 92%
% Herbicidal activity ([11]; A-1 25 g ai/ha): 94%
% Herbicidal activity ([12]; A-1 12.5 g ai/ha, 21 DAT, growth stage 55-65, height 10-15 cm, field, 140 l/ha water, 1% MSO + 2.5% ammoniumsulfate): 33%
% Herbicidal activity ([12]; POAAN, height 2.5-4 cm, A-1 solo 12.5 g ai/ha, 7 DAT, 1% v/v MSO): 83%
% Herbicidal activity ([12]; POAAN, height 2.5-4 cm, A-1 solo 25 g ai/ha, 7 DAT, 1% v/v MSO): 88%
% Herbicidal activity ([13]; A-1 solo 40 g ai/ha): 83%
% Herbicidal activity ([14]; A-1 18 g ai/ha, 29 DAT, growth stage 15-24, height 25-45 cm, field, 100 l/ha water): 73%
% Herbicidal activity ([14]; HORVS* (non-PPOi herbicide tolerant), growth stage 15, height 31-43 cm, A-1 solo 12.5 g ai/ha, 16 DAT): 72%
% Herbicidal activity ([14]; HORVS* (non-PPOi herbicide tolerant), growth stage 15, height 31-43 cm, A-1 solo 50 g ai/ha, 16 DAT): 96%

CC(C)N(C)S(=O)(=O)NC(=O)c1cc(-n2c(=O)cc(C(F)(F)F)n(C)c2=O)c(F)cc1Cl [B-1, saflufenacil]
% Herbicidal activity ([1]; B-1 25 g ai/ha, 25 DAT, growth stage 14-15, field, 0.25 l/ha Dash MSO Max ®): 3%
% Herbicidal activity ([1]; SORVU* (non-PPOi herbicide tolerant), height 21-31 cm, B-1 solo 25 g ai/ha, 22 DAT, 1% v/v MSO): 13%
% Herbicidal activity ([2]; B-1 25 g ai/ha, 19 DAT, growth stage 13-19, height 2.5-10 cm, field, 1% v/v MSO and 1% w/v ammoniumsulfate): 22%
% Herbicidal activity ([2]; SETVI, height 50-61 cm, B-1 solo 25 g ai/ha, 42 DAT, 1% v/v MSO and 2.5% AMSOL ®): 33%
% Herbicidal activity ([3]; B-1 solo 25 g ai/ha): 12%
% Herbicidal activity ([4]; B-1 3.12 g ai/ha): 85%
% Herbicidal activity ([5]; B-1 12.5 g ai/ha): 25%
% Herbicidal activity ([6]; growth stage 12-22, B-1 solo 25 g ai/ha): 0%
% Herbicidal activity ([7]; B-1 25 g ai/ha): 63%
% Herbicidal activity ([8]; B-1 6.25 g ai/ha, height 12.5-25 cm, field, 140 l/ha water, 1% MSO + 2.5% ammoniumsulfate): 40%
% Herbicidal activity ([8]; B-1 12.5 g ai/ha, height 12.5-25 cm, field, 140 l/ha water, 1% MSO + 2.5% ammoniumsulfate): 73%
% Herbicidal activity ([8]; ERICA, height 5-10 cm, B-1 solo 25 g ai/ha, 1% v/v MSO and 1% AMS (ammonium sulfate)): 90%
% Herbicidal activity ([9]; B-1 3.12 g ai/ha): 30%
% Herbicidal activity ([10]; B-1 25 g ai/ha, growth stage 15, 1% v/v MSO and 1% w/v ammoniumsulfate): 15%
% Herbicidal activity ([10]; B-1 25 g ai/ha, growth stage 18, 0.5% MSO): 0%
% Herbicidal activity ([11]; B-1 25 g ai/ha): 5%
% Herbicidal activity ([12]; B-1 12.5 g ai/ha, 21 DAT, growth stage 55-65, height 10-15 cm, field, 140 l/ha water, 1% MSO + 2.5% ammoniumsulfate): 18%
% Herbicidal activity ([12]; POAAN, height 2.5-4 cm, B-1 solo 25 g ai/ha, 7 DAT, 1% v/v MSO): 12%
% Herbicidal activity ([13]; B-1 solo 25 g ai/ha): 23%
% Herbicidal activity ([14]; B-1 18 g ai/ha, 29 DAT, growth stage 15-24, height 25-45 cm, field, 100 l/ha water): 0%
% Herbicidal activity ([14]; HORVS* (non-PPOi herbicide tolerant), growth stage 15, height 31-43 cm, B-1 solo 25 g ai/ha, 16 DAT): 3%

From patent publication US20250040548A1, “Herbicidal compositions comprising saflufenacil” (BASF SF, priority 2023, published 2025)
